What all share (assay): growth of human tumour cells (NCI), 48 h
In assay [1] the test system is HL-60(TB) leukemia.
Assay [2] deals with HOP-92 NSCLC.
Assay [3] has as its system NCI-H226 lung.
Assay [4] concerns OVCAR-4 ovarian.
Assay [5] deals with SK-MEL-28 melanoma.
In assay [6] the test system is SNB-75 CNS.
Assay [7] relates to UO-31 renal.
The subject of assay [8] is HS 578T breast.
The test system of assay [9] is NCI/ADR-RES ovarian.
For assay [10], the system named is MDA-MB-231 breast.

The text below walks through data of PubChem BioAssay (NCI).

SMILES strings stand for the structures.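 Cultured in 96-well plates, cells were exposed to test compound for 48 hours across five concentrations. GI50 marks 50% less growth. TGI: concentration producing complete growth inhibition.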 Some results are limits rather than exact numbers.

As for `COc1ccccc1NC(=O)C1=C(C)NC(C)=C(C(=O)Nc2ccccc2OC)C1c1ccccc1F`, the TGI in [1] is over 100 µM; in assay [2], over 100 µM; in [3], over 100 µM; in assay [4], over 100 µM; in assay [5] it was over 100 µM; in [6], 62.4 µM. Also, the TGI in assay [7] was over 100 µM.
On to `C[N+](C)(C)CC(=O)N/N=C(/Cc1nc2c3c(ccc2[nH]c1=O)C(=O)c1ccccc1C3=O)C(=O)Nc1ccc(Cl)c(Cl)c1`, for which the TGI in assay [1] was over 100 µM; in [2] it was 99.8 µM; in assay [4] it was over 100 µM; in assay [5], over 100 µM; in assay [7], 47.2 µM.
Consider `COc1cccc(NC(=O)CC(=O)N2N=C(N(CCC#N)c3ccc(Cl)cc3)CC2c2ccccc2)c1` (stereo unspecified), for which the TGI in assay [1], in assay [2], in assay [3], in assay [4], in assay [5] and in assay [6] was over 100 µM in each case. The TGI in assay [7] is over 100 µM.
With `COc1ccc(-c2ccc(/C=N/n3c(COc4ccc(Cl)cc4Cl)n[nH]c3=S)o2)c([N+](=O)[O-])c1`, the GI50 was 21.5 µM in assay [1]; 40.8 µM in [8]; 2.52 µM in [3]; 19.8 µM in assay [9]; 28.9 µM in assay [4]; 30.3 µM in assay [5]. Moreover, the GI50 in assay [7] was 43.9 µM. Further, the TGI in [1] is 51.2 µM; in assay [8] it was over 100 µM; in assay [3], 11.9 µM; in [9], 46.4 µM; in assay [4], 72.7 µM; in [5] it was 62.5 µM. Besides, the TGI in assay [7] is over 100 µM.
Take `CCCc1[nH]nc(CCC(=O)N(Cc2ccccc2)Cc2ccccc2)c1CC`: the TGI in [3], in assay [4], in assay [5], in [6] and in [7] was over 100 µM each time.
Take `COc1nc(NC2OCC(OC(C)=O)C(OC(C)=O)C2OC(C)=O)c(N=CC=Nc2c(NC3OCC(OC(C)=O)C(OC(C)=O)C3OC(C)=O)nc(OC)n(C)c2=O)c(=O)n1C` (stereo unspecified): the TGI in assay [1], in assay [2], in assay [4], in [5], in assay [6] and in assay [7] was over 100 µM in each case.
With `CCCCCCCCCCCCOC(=S)NCCCC`, the TGI in [1] is 43.1 µM; in assay [2], 46.9 µM; in assay [3], 45.1 µM; in assay [4], 99.7 µM; in assay [5], 90.9 µM; in assay [6], 95.1 µM. In [7], the TGI came out at 20.1 µM.
As for `CC(=O)NC(CCCNCc1ccccc1)C(=O)NCc1ccccc1` (stereo unspecified), the TGI in assay [2], in assay [3], in assay [4], in [5], in assay [6] and in [7] was over 100 µM in each case.
On to `CCOC(=O)C1=C(C)N(Cc2ccccc2)C(C)=C(C(=O)OCC)C1c1ccccc1O`, for which the TGI was 58.6 µM in [1]; 50.6 µM in assay [2]; 80.4 µM in assay [3]; over 100 µM in [4]; over 100 µM in [5]; over 100 µM in assay [6]. The TGI in assay [7] was over 100 µM.
Take `CC(C)(C)OC(=O)C#CC[C@H]1CCCC1/C=C/C(O)=C1/C(=O)NC(CCCNC(=O)OC(C)(C)C)C1=O` (stereo partly specified): the TGI in assay [1] was 73.7 µM; in [2], 59 µM; in [3] it was over 100 µM; in [4], 94.1 µM; in assay [5], 36.1 µM; in assay [6] it was over 100 µM. Besides, in assay [7], the TGI was over 100 µM.
`COC(=O)CCC(NC(=S)N/N=C(\C)c1nccs1)C(=O)OC` (stereo unspecified): the TGI in assay [1] was 47.5 µM; in [2] it was over 100 µM; in [3], over 100 µM; in assay [4], over 100 µM; in assay [5], over 100 µM; in assay [6], over 100 µM. Besides, the TGI in assay [7] is over 100 µM.
Consider `NC(=S)N/N=C(/CC(=O)c1ccccc1)C(=O)Nc1ccc(Cl)c(Cl)c1`, for which the TGI in assay [1], in assay [2], in assay [3], in [4], in assay [5] and in [6] was over 100 µM in each case. Moreover, the TGI in assay [7] is over 100 µM.
On to `CC1=NCCc2c1[nH]c1cc(O)ccc21`, for which the TGI in [1], in assay [2], in [3], in [4], in assay [5] and in assay [6] was over 100 µM in each case. The same compound displayed a TGI in [7] of over 100 µM.
For `Nc1cc2cccc[n+]2c2cc(Cl)ccc12`, the GI50 in assay [1] was 16.3 µM; in [2], 22.7 µM; in assay [8], 16.6 µM; in [10], 17.7 µM; in assay [3], 13.5 µM; in assay [4], 8.44 µM. The GI50 in [5] was 14.9 µM; in assay [6] it was 21.5 µM; in assay [7], 43.6 µM. The TGI in assay [2] was determined as 69.6 µM; in [8], 51.4 µM; in [10] it was 51 µM; in [3] it was 59.5 µM; in assay [4], 38.9 µM; in assay [5], 37.3 µM. For the same compound, the TGI in assay [6] came to 62.7 µM.
Turning to `O=Cc1cn(C(=O)c2ccccc2)c2ccccc12`, the TGI in assay [1] is 92.6 µM; in [3], over 100 µM; in assay [4], over 100 µM; in assay [5], over 100 µM; in assay [6], over 100 µM; in [7] it was over 100 µM.
With `COc1cc2c(cc1OC)C(N(C)C)C(c1ccccc1)=C2Cl` (stereo unspecified), the TGI is 65.8 µM in assay [1]; 36.7 µM in assay [2]; 56.4 µM in assay [3]; 65 µM in assay [4]; 36 µM in assay [5]; 48.7 µM in assay [6]. In assay [7], this compound returned a TGI of 32 µM.
